Measurements taken from publication PMC3781598 (Pharmaceutical research, 2013).
“And” between values parts separate entries of the source, which are not always exact repeats. Equal entries are not always repeated. “Also recorded” adds a separate entry of the source. Where two headings read alike, the source gives them in different places.

Legend:
human CYP2A13 [1] = target: T1, human CYP2A13 (Homo sapiens, UniProt Q16696); assay: Coumarin metabolism assay; conditions: for α (mixed inhibition) 2A13: mixed model inhibition
T1 sequence (Q16696 with tags, fused parts or gaps limits assumed): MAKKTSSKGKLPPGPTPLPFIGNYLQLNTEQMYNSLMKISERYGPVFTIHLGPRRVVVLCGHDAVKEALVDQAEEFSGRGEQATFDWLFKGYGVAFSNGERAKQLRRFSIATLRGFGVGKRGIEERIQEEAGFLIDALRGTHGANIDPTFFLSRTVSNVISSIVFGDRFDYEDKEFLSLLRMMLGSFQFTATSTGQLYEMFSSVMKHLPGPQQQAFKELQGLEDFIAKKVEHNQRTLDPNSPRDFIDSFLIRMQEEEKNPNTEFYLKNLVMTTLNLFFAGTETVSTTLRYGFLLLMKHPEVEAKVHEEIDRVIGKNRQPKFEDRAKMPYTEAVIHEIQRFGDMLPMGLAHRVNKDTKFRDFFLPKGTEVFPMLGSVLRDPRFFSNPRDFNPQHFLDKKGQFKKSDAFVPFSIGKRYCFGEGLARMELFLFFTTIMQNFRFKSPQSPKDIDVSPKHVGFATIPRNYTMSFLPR

CYP2A6 / CYP2A13 [2] = assay: Coumarin metabolism assay; conditions: human
human CYP2A6 [3] = target: T2, human CYP2A6 (Homo sapiens, UniProt P11509); assay: Spectral ligand binding assay; conditions: for Kd 2A6 / Kd: ≥ = minimal Kd value; for Spectral shift type 2A6: UV/Vis difference spectra
T2 sequence (P11509 with tags, fused parts or gaps limits assumed): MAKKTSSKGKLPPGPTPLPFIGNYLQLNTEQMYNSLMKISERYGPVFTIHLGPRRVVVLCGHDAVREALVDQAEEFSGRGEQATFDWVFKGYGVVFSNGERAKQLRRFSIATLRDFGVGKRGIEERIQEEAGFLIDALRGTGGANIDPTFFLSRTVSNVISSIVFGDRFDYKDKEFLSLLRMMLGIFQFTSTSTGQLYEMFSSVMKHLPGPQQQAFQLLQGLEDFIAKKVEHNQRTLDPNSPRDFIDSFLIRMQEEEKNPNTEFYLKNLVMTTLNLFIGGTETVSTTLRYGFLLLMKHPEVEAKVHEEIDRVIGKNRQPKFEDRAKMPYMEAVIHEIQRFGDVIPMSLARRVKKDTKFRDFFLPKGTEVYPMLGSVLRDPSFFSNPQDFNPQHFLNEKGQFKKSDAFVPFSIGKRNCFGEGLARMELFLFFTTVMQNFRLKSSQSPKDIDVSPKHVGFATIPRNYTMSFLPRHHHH

human CYP2A13 [4] = target: T3, human CYP2A13 (Homo sapiens, UniProt Q16696); assay: Spectral ligand binding assay; conditions: for Spectral shift type 2A13: UV/Vis difference spectra; for Kd: Kd 2A13, spectral titration, ≥ = minimal Kd value
T3 sequence (Q16696 25-494): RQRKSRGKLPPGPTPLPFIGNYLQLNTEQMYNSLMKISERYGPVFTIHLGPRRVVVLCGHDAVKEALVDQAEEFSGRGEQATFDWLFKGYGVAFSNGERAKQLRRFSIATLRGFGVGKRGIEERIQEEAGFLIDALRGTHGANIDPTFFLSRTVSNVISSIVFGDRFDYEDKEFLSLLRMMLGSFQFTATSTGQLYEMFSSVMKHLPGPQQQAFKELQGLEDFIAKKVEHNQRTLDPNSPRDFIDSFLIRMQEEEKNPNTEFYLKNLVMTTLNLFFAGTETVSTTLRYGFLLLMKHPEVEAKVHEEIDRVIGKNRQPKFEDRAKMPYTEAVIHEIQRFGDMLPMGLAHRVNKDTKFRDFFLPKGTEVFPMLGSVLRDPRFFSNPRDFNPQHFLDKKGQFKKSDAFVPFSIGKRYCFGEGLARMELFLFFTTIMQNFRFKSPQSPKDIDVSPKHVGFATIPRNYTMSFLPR

human CYP2A6 [5] = target: T2, human CYP2A6; assay: Coumarin metabolism assay; conditions: for α (mixed inhibition) 2A6: mixed model inhibition
CYP2A6 / CYP2A13 [6] = assay: Spectral ligand binding assay; set-up: species or system human; conditions: human
human CYP2A13 [7] = assay: Spectral ligand binding assay; conditions: ratio of the CYP2A6 value to the CYP2A13 value
human CYP2A13 [8] = assay: Coumarin metabolism assay; conditions: ratio of the CYP2A6 value to the CYP2A13 value
[9] = pH 7.4, probe coumarin (7-hydroxylation), Selectivity Ki (2A6)/ Ki (2A13), ratio of the CYP2A6 value to the CYP2A13 value
[10] = Selectivity Kd (2A6)/ Kd (2A13), ratio of the CYP2A6 value to the CYP2A13 value
[11] = read-out: Ki 2A13, coumarin substrate
[12] = read-out: Kd 2A6, spectral titration
[13] = read-out: Ki 2A6, coumarin substrate

Compound | Ki (human CYP2A13 [1]) [µM] | selectivity ratio at 10 min (CYP2A6 / CYP2A13 [2]; [9]) | Kd 2A6 (human CYP2A6 [3]; spectral titration) | Spectral shift type 2A13 (human CYP2A13 [4]) | Ki (human CYP2A6 [5]) [µM] | selectivity ratio at 10 min (CYP2A6 / CYP2A13 [2]; pH 7.4) | Kd (human CYP2A13 [4]) | Kd (human CYP2A6 [3]; Kd 2A6, spectral titration) [µM] | Spectral shift type 2A6 (human CYP2A6 [3]) | selectivity ratio (CYP2A6 / CYP2A13 [6]) | Mode of inhibition 2A6 (human CYP2A6 [5]; coumarin substrate) | α (mixed inhibition) 2A6 (human CYP2A6 [5]; coumarin substrate) | selectivity ratio (CYP2A6 / CYP2A13 [6]; [10]) | Selectivity Kd (2A6)/ Kd (2A13) (human CYP2A13 [7]) | Selectivity Ki (2A6)/ Ki (2A13) (human CYP2A13 [8]) | Mode of inhibition 2A13 (human CYP2A13 [1]; coumarin substrate) | α (mixed inhibition) 2A13 (human CYP2A13 [1]; coumarin substrate) | Ki (human CYP2A13 [1]; [11]) [µM] | Kd (human CYP2A6 [3]; [12]) [µM] | Ki (human CYP2A6 [5]; [13]) [µM]
Fc1ccccc1CN1CCOCC1 [Compound 2, 4-(2-fluorobenzyl)morpholine] | 379 | ≥ 2.6 | no spectral shift; also recorded: No ^** Spectral Shift | I | ≥ 1000 |  |  |  |  |  |  |  |  |  |  |  |  |  |  | 
Brc1ccccc1CN1CCOCC1 [Compound 4, 4-(2-bromobenzyl)morpholine] | 17.6 ± 3.1 |  | No ^** Spectral Shift | I | ≥ 1000 | ≥ 56.8 | 6.3 µM |  |  |  |  |  |  |  |  |  |  |  |  | 
Cc1ccccc1CN1CCOCC1 [Compound 5, 4-(2-methylbenzyl)morpholine] | 66.9 | ≥ 14.9 | No ^** Spectral Shift | I | ≥ 1000 |  | 18.5 µM |  |  |  |  |  |  |  |  |  |  |  |  | 
CCc1ccccc1CN1CCOCC1 [Compound 6, 4-(2-ethylbenzyl)morpholine] | 16.9 |  |  | I | 818 | 48.4 | 4.5 µM | ≥ 575 | I | ≥ 128 | mixed inhibition | 13.3 |  |  |  |  |  |  |  | 
Clc1cccc(Cl)c1CN1CCOCC1 [Compound 8, 4-(2,6-dichlorobenzyl)morpholine] | 18.1 | 13.7 |  | I | 237 |  | 1.3 µM | ≥ 522 | I |  |  |  | > 400 |  |  |  |  |  |  | 
Cc1cccc(Cl)c1CN1CCOCC1 [Compound 9, 4-(2-chloro-6-methylbenzyl)morpholine] | 19.7 ± 1.2 | 15 |  | I | 296 |  | 1.1 µM | 515 | I |  |  |  | > 400 | 468 |  |  |  |  |  | 
Clc1cccc(CN2CCOCC2)c1 [Compound 10, 4-(3-chlorobenzyl)morpholine] | 260 | 1.4 |  | I | 352 |  | 69.1 ± 30.2 µM | ≥ 400 | I [drawing 12] II |  |  |  | ≥ 5.8 |  |  |  |  |  |  | 
Clc1ccc(CN2CCOCC2)cc1 [Compound 11, 4-(4-chlorobenzyl)morpholine] | 458 | 1 |  | I | 448 |  | 168 µM and 167 µM | ≥ 245 | I |  |  |  | ≥ 1.5 |  |  |  |  |  |  | 
Clc1cccc(CN2CCOCC2)c1Cl [Compound 12, 4-(2,3-dichlorobenzyl)morpholine] | 88.9 | ~9 |  | I | 836 |  | 30.8 ± 8.1 µM | ≥ 305 | I |  |  |  | ≥ 9.9 |  | 9.4 |  |  |  |  | 
Clc1ccc(CN2CCOCC2)c(Cl)c1 [Compound 13, 4-(2,4-dichlorobenzyl)morpholine] | 113 ± 14 | ~9 |  | I | 995 |  | 34.2 µM | ≥ 198 | I |  |  |  | ≥ 5.8 |  | 8.9 |  |  |  |  | 
CC1CN(Cc2cccc(Cl)c2Cl)CC(C)O1 (stereo not shown) [Compound 14, 4-(2,3-dichlorobenzyl)-2,6-dimethylmorpholine] | 646 | ≥ 2.6 |  | I | ≥ 1000 |  | 37 µM | ≥ 462 | I |  |  |  | ≥ 12.5 |  |  | mixed inhibition | 19.6 |  |  | 
c1ccc2c(CN3CCOCC3)cccc2c1 [Compound 15, 4-(naphthalen-1-ylmethyl)morpholine] | 219 ± 18.7 | 2.3 | Weak Spectral Shift | I | 500 |  | 41.8 µM and 121 µM |  |  |  | mixed inhibition | 3.1 |  |  |  |  |  |  |  | 
Clc1ccccc1Cn1ccnc1 [Compound 16, 1-(2-chlorobenzyl)-1H-imidazole] | 2.8 | 1 |  |  | 2.9 |  | < 0.1 µM | 0.1 |  |  | purely competitive inhibitors |  | ≥ 1 |  |  | mixed inhibition; also recorded: mixed inhibitors | 3.9 |  |  | 
Clc1cccc(Cl)c1Cn1ccnc1 [Compound 17, 1-(2,6-dichlorobenzyl)-1H-imidazole] | 2.1 | 0.4 |  |  | 0.9 |  | < 0.1 µM | 0.9 |  |  | purely competitive inhibitors |  | ≥ 9 |  |  | mixed inhibition; also recorded: mixed inhibitors | 2.0 |  |  | 
c1csc(CN2CCOCC2)c1 [Compound 19, 4-(thiophen-2-ylmethyl)morpholine] | 131 | 2.1 |  | I | 270 |  | 30.8 µM | ≥ 464 | I |  |  |  | ≥ 15.1 |  |  |  |  |  |  | 
Clc1ccsc1CN1CCOCC1 [Compound 20, 4-((3-chlorothiophen-2-yl)methyl)morpholine] | 54.7 | 7.9 |  | I | 433 |  | 10.7 µM | ≥ 239 | I |  |  |  | ≥ 22.3 |  |  |  |  |  |  | 
CN1CCN(Cc2ccccc2Cl)CC1 [Compound 21, 1-(2-chlorobenzyl)-4-methylpiperazine] | ≥ 1000 |  | weak or no spectral shifts; also recorded: Weak Spectral Shift | I | ≥ 1000 |  | 306 µM |  |  |  |  |  |  |  |  |  |  |  |  | 
CN1CCN(Cc2c(Cl)cccc2Cl)CC1 [Compound 22, 1-(2,6-dichlorobenzyl)-4-methylpiperazine] | ≥ 1000 |  | weak or no spectral shifts; also recorded: No Spectral Shift | I | ≥ 1000 |  | ≥ 362 µM |  |  |  |  |  |  |  |  |  |  |  |  | 
CC(c1ccccc1Cl)N1CCOCC1 (stereo not shown) [Compound 23, 4-(1-(2-chlorophenyl)ethyl)morpholine] | 15.9 | 6.2 |  | I | 98.5 |  | 7.6 ± 2.8 µM | ≥ 538 | I |  |  |  | ≥ 70.8 |  |  |  |  |  |  | 
Clc1ccccc1CCN1CCOCC1 [Compound 24, 4-(2-chlorophenethyl)morpholine] |  |  |  |  |  |  |  |  |  |  |  |  |  |  |  |  |  | 604 | ≥ 604 | ≥ 1000
Benzylmorpholine [Compound 1] |  |  |  |  |  |  |  |  | I [drawing 2] II |  | mixed inhibition | 3.4 |  |  |  |  |  | 477 | ≥ 300 | 675
